This passage reports DSF results from patent US20260285857A1, “BICYCLIC AND HETEROCYCLIC AMIDE COMPOUNDS” (priority 2024, published 2026).

The assay has as its system immunoglobulin light chain protein WIL-FL T46L. Kind of assay: Differential scanning fluorimetry (thermal shift) assay. The assay is classed as binding. To be noted: Table B; temperature shift [Tm]compound-[Tm]vehicle; recombinant WIL-FL T46L. For orientation: Differential scanning fluorimetry follows unfolding on heating by fluorescence.

As to `Cc1cc(N2CC[C@](C)(c3ccccc3)C2)cn2nc(C34CC(N5CCC(C(=O)O)CC5=O)(CO3)C4CO)nc12` (stereo partly drawn) [Compound 546, 1-(5-(hydroxymethyl)-1-(8-methyl-6-((R)-3-methyl-3-phenylpyrrolidin-1-yl)-[1,2,4]triazolo[1,5-a]pyridin-2-yl)-2-oxabicyclo[2.1.1]hexan-4-yl)-2-oxopiperidine-4-carboxylic acid], the DSF entry was “***** (>2.5° C.=*****)”.

On to `CCS(=O)(=O)Nc1n[nH]c(C2C3(CNC(=O)CC(C)(C)C(=O)O)COC2(c2nc4c(C)cc(N5CC[C@](C)(c6ccccc6)C5)cn4n2)C3)n1` (stereo partly drawn) [Compound 547, 4-[[5-[3-(ethylsulfonylamino)-1H-1,2,4-triazol-5-yl]-1-[8-methyl-6-[(3R)-3-methyl-3-phenyl-pyrrolidin-1-yl]-[1,2,4]triazolo[1,5-a]pyridin-2-yl]-2-oxabicyclo[2.1.1]hexan-4-yl]methylamino]-2,2-dimethyl-4-oxo-butanoic acid], for which the DSF entry is given as “***** (>2.5° C.=*****)”.

With `CCS(=O)(=O)Nc1n[nH]c(C2C3(CN)COC2(c2nc4c(C)cc(N5CC[C@](C)(c6ccccc6)C5)cn4n2)C3)n1` (stereo partly drawn) [Compound 548], the DSF result was “***** (>2.5° C.=*****)”.

In the case of `Cc1cc(N2CC[C@](C)(c3ccccc3)C2)cn2nc(C34CC(CO3)C4c3nc(NC(=O)c4cccc(C(=O)O)n4)n[nH]3)nc12` (stereo partly drawn) [Compound 549], the DSF result is on record as “***** (>2.5° C.=*****)”.

`Cc1cc(N2CC[C@](C)(c3ccccc3)C2)cn2nc(C34CC(CO3)C4c3nc(NC(=O)C4CC(C(=O)O)C4)n[nH]3)nc12` (stereo partly drawn) [Compound 550]: the DSF entry is listed as “***** (>2.5° C.=*****)”.

Take `CCOC(=O)Nc1n[nH]c(C2C3COC2(c2nc4c(C)cc(N5CC[C@](C)(c6ccccc6)C5)cn4n2)C3)n1` (stereo partly drawn) [Compound 551]: the DSF entry is on record as “***** (>2.5° C.=*****)”.

For the compound `Cc1cc(N2CC[C@](C)(c3ccccc3)C2)cn2nc(C34CC(CO3)C4c3nc(NC(=O)N4CC(C(=O)O)C4)n[nH]3)nc12` (stereo partly drawn) [Compound 554], the DSF result was “***** (>2.5° C.=*****)”.

In the case of `Cc1cc(N2CC[C@](C)(c3ccccc3)C2)cn2nc(C34CC(CO3)C4c3nc(NC(=O)C4CC(C)(C(=O)O)C4)n[nH]3)nc12` (stereo partly drawn) [Compound 555], the DSF entry was “***** (>2.5° C.=*****)”.

In the case of `Cc1cc(N2CC[C@](C)(c3ccccc3)C2)cn2nc(C34CC(CO3)C4c3nc(N)nn3C(=O)C3CC(C)(C(=O)O)C3)nc12` (stereo partly drawn) [Compound 556], the DSF result is recorded as “***** (>2.5° C.=*****)”.

`Cc1cc(N2CC[C@](C)(c3ccccc3)C2)cn2nc(C34CC(CO3)C4c3nc(NC(=O)[C@@H]4C[C@H]4C(=O)O)n[nH]3)nc12` (stereo partly drawn) [Compound 557]: the DSF entry is given as “***** (>2.5° C.=*****)”.

Consider `Cc1cc(N2CC[C@](C)(c3ccccc3)C2)cn2nc(C34CC(CO3)C4c3nc(NC(=O)c4cccnc4C(=O)O)n[nH]3)nc12` (stereo partly drawn) [Compound 558], for which the DSF result is given as “***** (>2.5° C.=*****)”.

On to `Cc1cc(N2CC[C@](C)(c3ccccc3)C2)cn2nc(C34CC(CO3)C4c3nc(NC(=O)CC4(C(=O)O)CC4)n[nH]3)nc12` (stereo partly drawn) [Compound 559], for which the DSF entry is listed as “***** (>2.5° C.=*****)”.

`Cc1cc(N2CC[C@](C)(c3ccccc3)C2)cn2nc(C34CC(CO3)C4c3nc(NC(=O)C4CC5(CC(C(=O)O)C5)C4)n[nH]3)nc12` (stereo partly drawn) [Compound 560]: the DSF result is listed as “***** (>2.5° C.=*****)”.

For `Cc1cc(N2CC[C@](C)(c3ccccc3)C2)cn2nc(C34CC(CO3)C4c3nc(NS(=O)(=O)[C@H]4CC[C@@H](C(=O)O)CC4)n[nH]3)nc12` (stereo partly drawn) [Compound 561], the DSF entry is reported as “***** (>2.5° C.=*****)”.

On to `Cc1cc(N2CC[C@](C)(c3ccccc3)C2)cn2nc(C34CC(CO3)C4c3nc(NS(=O)(=O)[C@H]4CC[C@H](C(=O)O)CC4)n[nH]3)nc12` (stereo partly drawn) [Compound 562], for which the DSF result is given as “***** (>2.5° C.=*****)”.

As for `CCS(=O)(=O)Nc1n[nH]c(C2C3COC2(c2nc4c(C)cc(N5CC[C@@](C)(n6ccc(C(F)(F)F)n6)C5)cn4n2)C3)n1` (stereo partly drawn) [Compound 563], the DSF result was “**** (>1.5-2.5° C.=****)”.

On to `Cc1cc(N2CC[C@](C)(c3ccccc3)C2)cn2nc(C34CC(CO3)C4c3nc(NS(=O)(=O)CC(C)(C)C(=O)O)n[nH]3)nc12` (stereo partly drawn) [Compound 564], for which the DSF result is reported as “***** (>2.5° C.=*****)”.

As for `Cc1cc(N2CC[C@](C)(c3ccccc3)C2)cn2nc(C34CC(CO3)C4c3nc(NS(=O)(=O)C4CC(C)(C(=O)O)C4)n[nH]3)nc12` (stereo partly drawn) [Compound 565], the DSF entry is “***** (>2.5° C.=*****)”.

As to `Cc1cc(N2CC[C@](C)(c3ccccc3)C2)cn2nc(C34CC(CO3)C4c3nc(N)nn3S(=O)(=O)C3CC(C)(C(=O)O)C3)nc12` (stereo partly drawn) [Compound 566], the DSF entry is given as “***** (>2.5° C.=*****)”.

As for `COC(C)(CS(=O)(=O)Nc1n[nH]c(C2C3COC2(c2nc4c(C)cc(N5CC[C@](C)(c6ccccc6)C5)cn4n2)C3)n1)C(=O)O` (stereo partly drawn) [Compound 567], the DSF result was “**** (>1.5-2.5° C.=****)”.

In the case of `Cc1cc(N2CC[C@](C)(c3ccccc3)C2)cn2nc(C34CC(CO3)C4c3nc(NS(=O)(=O)C4COC(C(=O)O)C4)n[nH]3)nc12` (stereo partly drawn) [Compound 568], the DSF entry is listed as “***** (>2.5° C.=*****)”.

With `Cc1cc(N2CC[C@](C)(c3ccccc3)C2)cn2nc(C34CC(CO)(CO3)C4C(=O)NCC(C)(C)C(=O)O)nc12` (stereo partly drawn) [Compound 569, 3-[[4-(hydroxymethyl)-1-[8-methyl-6-[(3R)-3-methyl-3-phenyl-pyrrolidin-1-yl]-[1,2,4]triazolo[1,5-a]pyridin-2-yl]-2-oxabicyclo[2.1.1]hexane-5-carbonyl]amino]-2,2-dimethyl-propanoic acid], the DSF result is reported as “**** (>1.5-2.5° C.=****)”.

Consider `Cc1cc(N2CC[C@](C)(c3ccccc3)C2)cn2nc(C34CC(CO)(CO3)C4c3nnn(C)n3)nc12` (stereo partly drawn) [Compound 570, (5-(2-methyl-2 h-tetrazol-5-yl)-1-(8-methyl-6-((r)-3-methyl-3-phenylpyrrolidin-1-yl)-[1,2,4]triazolo[1,5-a]pyridin-2-yl)-2-oxabicyclo[2.1.1]hexan-4-yl)methanol], for which the DSF entry is “***** (>2.5° C.=*****)”.

In the case of `Cc1cc(N2CC[C@](C)(c3ccccc3)C2)cn2nc(C34CC(CO)(CO3)C4c3nnnn3C)nc12` (stereo partly drawn) [Compound 571], the DSF result was “***** (>2.5° C.=*****)”.

As to `CCC(=O)Nc1n[nH]c(C2C3(CO)COC2(c2nc4c(C)cc(N5CC[C@](C)(c6ccccc6)C5)cn4n2)C3)n1` (stereo partly drawn) [Compound 572, N-[5-[4-(hydroxymethyl)-1-[8-methyl-6-[(3R)-3-methyl-3-phenyl-pyrrolidin-1-yl]-[1,2,4]triazolo[1,5-a]pyridin-2-yl]-2-oxabicyclo[2.1.1]hexan-5-yl]-1H-1,2,4-triazol-3-yl]propanamide], the DSF result is reported as “***** (>2.5° C.=*****)”.

For `CCS(=O)(=O)Nc1nc(C2C3(CO)COC2(c2nc4c(C)cc(N5CC[C@](C)(c6ccccc6)C5)cn4n2)C3)n[nH]1` (stereo partly drawn) [Compound 573, N-[3-[4-(hydroxymethyl)-1-[8-methyl-6-[(3R)-3-methyl-3-phenyl-pyrrolidin-1-yl]-[1,2,4]triazolo[1,5-a]pyridin-2-yl]-2-oxabicyclo[2.1.1]hexan-5-yl]-1H-1,2,4-triazol-5-yl]ethanesulfonamide], the DSF result is listed as “***** (>2.5° C.=*****)”.

With `Cc1cc(N2CC[C@](C)(c3ccccc3)C2)cn2nc(C34CC(CO)(CO3)C4c3nc(NS(=O)(=O)CC(C)(C)C(=O)O)n[nH]3)nc12` (stereo partly drawn) [Compound 574], the DSF result is “***** (>2.5° C.=*****)”.
